Measurements from patent publication US6541467B1, “Thrombin inhibitors having a lactam at P3” (Corvas International, Inc., priority 2000, dated 2003).

Legend:
Assay type in all cases: biochemical
Factor Xa = molecular target: T1, Factor Xa (Homo sapiens, UniProt P00742); test: Factor Xa chromogenic enzyme assay; details: read-out: fXa IC50
T1 construct: purchased Enzyme Research Laboratories, Inc. (South Bend, Ind.)
Method: (§1) The ability of compounds of the present invention to act as a selective inhibitor of thrombin activity was assessed by determining the concentration of test-compound which inhibited the activity of this enzyme by 50%, (IC50), and comparing this value to that determined for all or some of the following related serine proteases: recombinant tissue plasminogen activator (rt-PA), plasmin, activated protein C, chymotrypsin, factor Xa and trypsin.
(§2) The buffer used for all assays was HBSA (10 mM HEPES, pH 7.5, 150 mM sodium chloride, 0.1% bovine serum albumin).
(§3) The assay for IC50 determinations was conducted by combining in appropriate wells of a Corning microtiter plate, 50 microliters of HBSA, 50 microliters of the test compound at a specified concentration (covering a broad concentration range) diluted in HBSA (or HBSA alone for V0 (uninhibited velocity) measurement), and 50 microliters of the enzyme diluted in HBSA. Following a 30 minute incubation at ambient temperature, 50 microliters of the substrate at the concentrations specified below were added to the wells, yielding a final total volume of 200 microliters. The initial velocity of chromogenic substrate hydrolysis was measured by the change in absorbance at 405 nm using a Thermo Max® Kinetic Microplate Reader over a 5 minute period in which less than 5% of the added substrate was utilized. The concentration of added inhibitor which caused a 50% decrease in the initial rate of hydrolysis was defined as the IC50 value.
Factor Xa catalytic activity was determined using the chromogenic substrate S-2765 (N-benzyloxycarbonyl-D-arginine-L-glycine-L-arginine-p-nitroaniline), obtained from DiaPharma Group (Franklin, Ohio). All substrates were reconstituted in deionized water prior to use. […] Purified human Factor X was obtained from Enzyme Research Laboratories, Inc. (South Bend, Ind.) and Factor Xa (FXa) was activated and prepared from it as described [Bock, P. E., Craig, P. A., Olson, S. T., and Singh, P. Arch. Biochem. Biophys. 273:375-388 (1989)]. The enzyme was diluted into HBSA prior to assay in which the final concentration was 0.25 nM.

human α-thrombin = molecular target: T2, human α-thrombin (Homo sapiens, UniProt P00734); test: Thrombin (fIIa) chromogenic enzyme assay; details: for IC50: 0 min
T2 construct: Purified human α-thrombin; purchased Enzyme Research Laboratories, Inc
Method: For screening compounds using these assays, the compounds of the present invention are dissolved in buffer to give solutions containing concentrations such that assay concentrations range from 0 to 100 micromolar. In the assays for thrombin, plasmin, t-PA, aPC, chymotrypsin, and trypsin, a chromogenic synthetic substrate is added to a solution containing test compound and the enzyme of interest and the residual catalytic activity of that enzyme is determined spectrophometrically. The IC50 of a compound of the present invention is determined from the rate of substrate turnover caused by the specific enzyme being measured. IC50 is the concentration of test compound which gives 50% inhibition of the rate of substrate turnover. Likewise, the Ki of a compound of the present invention is determined from the rate of substrate turnover caused by the specific enzyme being measured at various […] concentrations. Example A provides exemplars of in vitro assays used to select the compounds of the present invention.
as §1, §2
as §3, with “Following a 30 minute incubation at ambient temperature, 50 microliters of the substrate at the concentrations specified below were added to the wells, yielding a final total volume of 200 microliters.” left out
Enzyme activity was determined using the chromogenic substrate, Pefachrome t-PA (CH3SO2-D-hexahydrotyrosine-glycyl-L-Arginine-p-nitroaniline, obtained from Pentapharm Ltd.). The substrate was reconstituted in deionized water prior to use. Purified human α-thrombin was obtained from Enzyme Research Laboratories, Inc. The buffer used for all assays was HBSA (10 mM HEPES, pH 7.5, 150 mM sodium chloride, 0.1% bovine serum albumin).
The initial velocity of Pefachrome t-PA hydrolysis was measured by the change in absorbance at 405 nm using a Thermo Max® Kinetic Microplate Reader over a 5 minute period in which less than 5% of the added substrate was utilized. The concentration of:added inhibitor which caused a 50% decrease in the initial rate of hydrolysis was defined as the IC50 value.

human plasmin = molecular target: T3, human plasmin (Homo sapiens, UniProt P00747); test: Plasmin chromogenic enzyme assay
T3 construct: Purified human plasmin; purchased Enzyme Research Laboratories, Inc
T3 sequence (P00747 581-810 limits assumed): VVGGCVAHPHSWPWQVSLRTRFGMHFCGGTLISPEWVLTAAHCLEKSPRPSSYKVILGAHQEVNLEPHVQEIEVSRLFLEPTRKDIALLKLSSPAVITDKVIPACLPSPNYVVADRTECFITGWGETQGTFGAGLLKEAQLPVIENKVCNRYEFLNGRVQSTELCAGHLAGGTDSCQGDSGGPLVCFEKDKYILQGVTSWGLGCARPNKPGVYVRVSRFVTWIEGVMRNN
T3 sequence (P00747 97-580 partner limits assumed): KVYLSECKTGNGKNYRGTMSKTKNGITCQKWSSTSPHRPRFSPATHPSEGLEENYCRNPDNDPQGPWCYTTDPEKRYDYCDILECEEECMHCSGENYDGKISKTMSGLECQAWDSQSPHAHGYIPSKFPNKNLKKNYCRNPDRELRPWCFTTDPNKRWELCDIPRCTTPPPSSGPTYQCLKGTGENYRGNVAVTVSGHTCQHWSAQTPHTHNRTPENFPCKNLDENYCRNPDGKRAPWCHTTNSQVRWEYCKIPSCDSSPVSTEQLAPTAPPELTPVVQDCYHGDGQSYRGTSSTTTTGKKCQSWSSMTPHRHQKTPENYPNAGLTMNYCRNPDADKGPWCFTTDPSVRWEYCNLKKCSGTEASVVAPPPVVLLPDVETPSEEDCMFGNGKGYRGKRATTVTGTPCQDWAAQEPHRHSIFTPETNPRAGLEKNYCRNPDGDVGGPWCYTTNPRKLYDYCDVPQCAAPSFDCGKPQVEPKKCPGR
Method: as §1, §2, §3
Plasmin catalytic activity was determined using the chromogenic substrate, S-2366 [L-pyroglutamyl-L-prolyl-L-arginine-p-nitroaniline hydrochloride], which was obtained from DiaPharma group. The substrate was made up in deionized water followed by dilution in HBSA prior to the assay in which the final concentration was 300 micromolar (about 2:.5-times Km). Purified human plasmin was obtained from Enzyme Research Laboratories, Inc. The enzyme was diluted into HBSA prior to assay in which the final concentration was 1.0 nM.

[1] = molecular target: T4, bovine pancreatic trypsin (Bos taurus, UniProt P00760); test: Trypsin chromogenic enzyme assay
T4 sequence (P00760 24-246): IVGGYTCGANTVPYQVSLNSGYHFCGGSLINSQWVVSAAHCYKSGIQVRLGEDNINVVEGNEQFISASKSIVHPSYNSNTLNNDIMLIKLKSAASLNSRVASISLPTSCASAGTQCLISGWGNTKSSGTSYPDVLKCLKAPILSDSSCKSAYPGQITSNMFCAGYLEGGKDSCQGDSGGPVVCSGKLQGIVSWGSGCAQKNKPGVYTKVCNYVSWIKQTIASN
Method: as §1, §2, §3
Trypsin catalytic activity was determined using the chromogenic substrate, S-2222 (benzoyl-L-isoleucine-L-glutamic acid-[gamma-methyl ester]-L-arginine-p-nitroanilide), which was obtained from DiaPharma Group. […] Purified (3×-crystallized; TRL3) bovine pancreatic trypsin was obtained from Worthington Biochemical Corp. The enzyme was reconstituted in deionized water and diluted into HBSA prior to assay in which the final concentration was 0.5 nM.

T1 sequence (P00742 235-488 limits assumed): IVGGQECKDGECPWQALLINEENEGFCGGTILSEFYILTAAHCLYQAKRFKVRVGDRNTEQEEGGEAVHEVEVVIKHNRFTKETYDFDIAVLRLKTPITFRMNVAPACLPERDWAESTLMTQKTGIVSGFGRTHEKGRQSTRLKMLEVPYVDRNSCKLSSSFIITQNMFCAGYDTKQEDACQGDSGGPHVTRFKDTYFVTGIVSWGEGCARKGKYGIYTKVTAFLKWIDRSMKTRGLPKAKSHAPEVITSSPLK
T1 sequence (P00742 41-179 partner limits assumed): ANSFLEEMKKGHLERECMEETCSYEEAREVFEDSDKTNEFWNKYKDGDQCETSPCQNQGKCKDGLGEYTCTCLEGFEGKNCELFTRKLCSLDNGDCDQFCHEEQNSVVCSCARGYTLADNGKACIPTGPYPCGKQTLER

| Structure (SMILES) | IC50 (Factor Xa) [nM] | Ki (human α-thrombin) [nM] | IC50 (human α-thrombin) [nM] | IC50 (human plasmin) [nM] | IC50 [1] [nM] |
| --- | --- | --- | --- | --- | --- |
| N[C@H]1CC[C@H](CNC(=O)CN2CCCC[C@H](NS(=O)(=O)c3ccc4c(c3)CCO4)C2=O)CC1 [Example 48] | ≥ 2500 | ≤ 100 | 300 to 2500 | ≥ 2500 | ≥ 2500 |
| N=C(N)c1ccc(CNC(=O)CN2C(=O)[C@@H](NS(=O)(=O)c3ccc4c(c3)CCO4)CCc3ccccc32)cc1 [Example 55, 3-(S)-(2,3-Dihydrobenzo[b]furanyl-5-sulfonyl)amino-1-(4-amidinylphenylmethylenecarboxamido)-4,5-dihydrobenzo[f]azepin-2-one] | ≥ 2500 | ≤ 100 | ≤ 100 | ≥ 2500 | 300 to 2500 |
| N/C(=N\O)c1ccc(CNC(=O)[C@@H]2Cc3cccc4c3N2C(=O)[C@@H](NS(=O)(=O)c2ccc3c(c2)CCO3)CC4)cc1 [Example 60, N-(2,3-Dihydrobenzo[b]furanyl-5-sulfonyl)-Haic-aminomethylphenyl-N-hydroxyamidine] | ≥ 2500 | ≥ 2500 | ≥ 2500 | ≥ 2500 | ≥ 2500 |
| N=C(N)N1CCC(CNC(=O)CN2C(=O)[C@@H](NS(=O)(=O)c3ccc4c(c3)CCO4)CCc3ccccc32)CC1 [Example 56, 3-(S)-(2,3-Dihydrobenzo[b]furanyl-5-sulfonyl)amino-1-(1-amidino-4-methylenecarboxamidomethylpiperidyl)-4,5-dihydrobenzo[f]azepin-2-one] | ≥ 2500 | ≤ 100 | 300 to 2500 | ≥ 2500 | ≥ 2500 |
| O=C(CN1CCCC[C@H](NS(=O)(=O)c2ccc3c(c2)CCO3)C1=O)NCc1ccc2[nH]ncc2c1 [Example 49] | ≥ 2500 | 100 to 300 | 300 to 2500 | ≥ 2500 | ≥ 2500 |
| Cc1nc(N)ccc1CNC(=O)CN1CCCC[C@H](NS(=O)(=O)c2ccc3c(c2)CCO3)C1=O [Example 35, 3-(S)-(2,3-Dihydrobenzo[b]furanyl-5-sulfonyl)amino-1-(2-amino-6-methyl-5-methylenecarboxamidomethylpyridinyl)-4,5,6,7-tetrahydroazepin-2-one] | ≥ 2500 | ≤ 100 | 100 to 300 | ≥ 2500 | ≥ 2500 |
| N=C(N)c1ccc(CNC(=O)CN2CCCC[C@H](NS(=O)(=O)c3ccc4c(c3)CCO4)C2=O)s1 [Example 24, 3-(S)-(2,3-Dihydrobenzo[b]furanyl-5-sulfonyl)amino-1-(2-amindino-5-methylenecarboxamidomethylthiophenyl)-4,5,6,7-tetrahydroazepin-2-one] | 300 to 2500 | ≤ 100 | ≤ 100 | ≥ 2500 | 100 to 300 |
| COc1ccc(OC)c(S(=O)(=O)N[C@H]2CCCCN(CC(=O)NCC3CCN(C(=N)N)CC3)C2=O)c1 [Example 42] | ≥ 2500 | 100 to 300 | 300 to 2500 | ≥ 2500 | ≥ 2500 |
| N=C(N)c1ccc(CNC(=O)[C@@H]2Cc3cccc4c3N2C(=O)[C@@H](NS(=O)(=O)c2ccc3c(c2)CCO3)CC4)cc1 [Example 61, N-(2,3-Dihydrobenzo[b]furanyl-5-sulfonyl)-Haic-aminomethylphenylamidine] | 300 to 2500 | ≤ 100 | ≤ 100 | ≥ 2500 | ≤ 100 |
| N=C(N)N1CCC(CNC(=O)CN2CCCC[C@H](NS(=O)(=O)c3ccc4c(c3)CCO4)C2=O)CC1 [Example 36, 3-(S)-(2,3-Dihydrobenzo[b]furanyl-5-sulfonyl)amino-1-(1-amidino-4-methylenecarboxamidomethylperidinyl)-4,5,6,7-tetrahydroazepin-2-one] | ≥ 2500 | ≤ 100 | 100 to 300 | ≥ 2500 | ≥ 2500 |
| N=C(N)c1ccc(CNC(=O)CN2CCCC[C@H](NS(=O)(=O)c3ccc4c(c3)CCO4)C2=O)c(F)c1 [Example 39] | ≥ 2500 | ≤ 100 | 100 to 300 | ≥ 2500 | 100 to 300 |
| N/C(=N\O)c1ccc(CNC(=O)CN2C(=O)[C@@H](NS(=O)(=O)c3ccc4c(c3)CCO4)CCc3ccccc32)cc1 [Example 54, 3-(S)-(2,3-Dihydrobenzo[b]furanyl-5-sulfonyl)amino-1-(4-hydroxyamidinylbenzylmethylenecarboxamido)-4,5-dihydrobenzo[f]azepin-2-one] | ≥ 2500 | 300 to 2500 | ≥ 2500 | ≥ 2500 | ≥ 2500 |
| Cc1nc(N)ccc1CNC(=O)CN1CCCC[C@H](NS(=O)(=O)Cc2ccccc2)C1=O [Example 66] | ≥ 2500 | ≤ 100 | 300 to 2500 | ≥ 2500 | ≥ 2500 |

Results, then the compound that gave them:

| IC50 (Factor Xa) [nM] | Ki (human α-thrombin) [nM] | IC50 (human α-thrombin) [nM] | IC50 (human plasmin) [nM] | IC50 [1] [nM] | Structure (SMILES) |
| --- | --- | --- | --- | --- | --- |
| ≥ 2500 | ≤ 100 | ≤ 100 | ≥ 2500 | 100 to 300 | COc1ccc(S(=O)(=O)N[C@H]2CCCCN(CC(=O)NCc3ccc(C(=N)N)cc3)C2=O)cc1OC [Example 47] |
| 300 to 2500 | ≤ 100 | 100 to 300 | ≥ 2500 | 300 to 2500 | N=C(N)c1ccc(CNC(=O)CN2CCCC[C@H](NS(=O)(=O)Cc3ccccc3)C2=O)cc1 [Example 67] |
| ≥ 2500 | 100 to 300 | 300 to 2500 | ≥ 2500 | 100 to 300 | N=C(N)c1ccc(CNC(=O)CN2CCCC[C@H](NS(=O)(=O)c3ccc4ccccc4c3)C2=O)cc1 [Example 44] |
| ≥ 2500 | ≤ 100 | 100 to 300 | ≥ 2500 | 100 to 300 | N=C(N)c1ccc(CNC(=O)CN2CCCC[C@H](NS(=O)(=O)c3ccccc3)C2=O)cc1 [Example 45] |
| ≥ 2500 | ≤ 100 | ≤ 100 | ≥ 2500 | ≥ 2500 | COc1ccc(OC)c(S(=O)(=O)N[C@H]2CCCCN(CC(=O)NCc3ccc(C(=N)N)cc3)C2=O)c1 [Example 46] |
| ≥ 2500 | ≤ 100 | ≤ 100 | ≥ 2500 | ≤ 100 | N=C(N)c1ccc(CNC(=O)CN2CCCC[C@H](NS(=O)(=O)c3ccc4c(c3)CCO4)C2=O)cc1 [Example 38] |
